Reference: ChEMBL document CHEMBL3991601, “The target landscape of clinical kinase drugs” (Science, 2017)
The source made the active and inactive calls.

Tests used:
[1] = biological target: Bone morphogenetic protein receptor type-1A (Homo sapiens, UniProt P36894)
[2] = biological target: Cyclin-dependent kinase 1 (Homo sapiens, UniProt P06493)
[3] = biological target: Casein kinase I isoform alpha (Homo sapiens, UniProt P48729)
[4] = biological target: DnaJ homolog subfamily A member 1 (Homo sapiens, UniProt P31689)
Ephrin type-A receptor 7 = Ephrin type-A receptor 7 (Homo sapiens, UniProt Q15375)
[5] = biological target: T1, Serine/threonine-protein kinase LATS1 (Homo sapiens, UniProt O95835)
T1 sequence (O95835 whole entry): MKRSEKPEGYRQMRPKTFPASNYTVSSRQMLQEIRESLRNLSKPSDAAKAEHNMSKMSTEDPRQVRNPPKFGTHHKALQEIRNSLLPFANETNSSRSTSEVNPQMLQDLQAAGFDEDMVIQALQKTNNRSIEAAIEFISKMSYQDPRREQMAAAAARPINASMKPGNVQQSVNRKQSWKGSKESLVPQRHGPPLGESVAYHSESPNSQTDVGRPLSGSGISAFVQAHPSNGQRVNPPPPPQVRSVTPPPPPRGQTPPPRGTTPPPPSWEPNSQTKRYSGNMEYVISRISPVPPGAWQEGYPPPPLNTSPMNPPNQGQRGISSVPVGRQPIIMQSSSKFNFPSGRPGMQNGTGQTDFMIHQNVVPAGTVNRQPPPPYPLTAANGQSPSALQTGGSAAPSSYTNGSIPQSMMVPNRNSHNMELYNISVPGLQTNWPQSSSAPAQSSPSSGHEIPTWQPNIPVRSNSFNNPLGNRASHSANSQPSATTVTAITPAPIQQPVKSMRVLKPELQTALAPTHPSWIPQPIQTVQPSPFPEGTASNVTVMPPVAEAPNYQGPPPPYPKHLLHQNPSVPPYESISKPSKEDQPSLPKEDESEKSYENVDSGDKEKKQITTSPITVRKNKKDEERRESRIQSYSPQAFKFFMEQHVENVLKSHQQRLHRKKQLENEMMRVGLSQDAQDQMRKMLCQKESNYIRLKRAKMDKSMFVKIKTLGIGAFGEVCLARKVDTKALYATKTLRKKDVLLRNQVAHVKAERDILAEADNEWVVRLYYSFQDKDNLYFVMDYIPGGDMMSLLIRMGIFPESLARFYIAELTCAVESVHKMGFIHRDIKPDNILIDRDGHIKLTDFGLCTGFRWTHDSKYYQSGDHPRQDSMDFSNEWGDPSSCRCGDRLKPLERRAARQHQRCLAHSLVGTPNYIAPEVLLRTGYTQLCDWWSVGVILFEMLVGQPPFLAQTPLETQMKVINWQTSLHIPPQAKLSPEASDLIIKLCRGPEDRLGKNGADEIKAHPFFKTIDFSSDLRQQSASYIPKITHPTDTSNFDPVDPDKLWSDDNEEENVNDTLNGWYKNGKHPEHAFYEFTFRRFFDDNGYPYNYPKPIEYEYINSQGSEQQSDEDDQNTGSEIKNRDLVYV

[6] = biological target: Hepatocyte growth factor receptor (Homo sapiens, UniProt P08581)
[7] = biological target: T2, Dynamin-like GTPase OPA1, mitochondrial (Homo sapiens, UniProt O60313)
T2 sequence (O60313 whole entry): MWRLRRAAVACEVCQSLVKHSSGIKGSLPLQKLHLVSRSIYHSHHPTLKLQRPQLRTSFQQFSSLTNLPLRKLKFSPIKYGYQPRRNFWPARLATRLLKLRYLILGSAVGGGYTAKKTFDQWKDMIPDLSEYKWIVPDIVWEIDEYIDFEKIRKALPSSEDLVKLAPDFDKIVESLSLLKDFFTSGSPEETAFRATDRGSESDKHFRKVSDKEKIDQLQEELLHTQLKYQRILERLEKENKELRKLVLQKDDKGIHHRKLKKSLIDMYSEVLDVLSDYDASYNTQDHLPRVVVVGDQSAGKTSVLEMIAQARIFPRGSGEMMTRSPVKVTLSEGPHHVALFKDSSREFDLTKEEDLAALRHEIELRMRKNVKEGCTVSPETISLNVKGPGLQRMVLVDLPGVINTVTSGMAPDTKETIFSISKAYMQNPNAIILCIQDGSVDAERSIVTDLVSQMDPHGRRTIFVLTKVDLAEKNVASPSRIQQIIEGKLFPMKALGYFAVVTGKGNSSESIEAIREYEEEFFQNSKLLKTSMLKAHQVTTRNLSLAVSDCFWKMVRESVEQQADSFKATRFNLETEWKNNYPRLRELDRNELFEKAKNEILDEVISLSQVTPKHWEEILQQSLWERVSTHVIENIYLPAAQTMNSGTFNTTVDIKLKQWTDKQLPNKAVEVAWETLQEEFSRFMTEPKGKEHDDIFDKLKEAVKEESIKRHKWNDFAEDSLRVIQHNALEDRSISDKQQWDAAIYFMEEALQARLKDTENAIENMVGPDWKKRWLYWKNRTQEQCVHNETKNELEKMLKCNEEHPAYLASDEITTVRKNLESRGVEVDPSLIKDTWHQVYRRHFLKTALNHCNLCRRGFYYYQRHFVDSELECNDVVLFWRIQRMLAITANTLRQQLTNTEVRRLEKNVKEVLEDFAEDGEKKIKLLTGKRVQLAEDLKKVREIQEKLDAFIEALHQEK

[8] = biological target: Ribosomal protein S6 kinase beta-1 (Homo sapiens, UniProt P23443)
DNA topoisomerase 2-beta = DNA topoisomerase 2-beta (Homo sapiens, UniProt Q02880)
[9] = biological target: Non-receptor tyrosine-protein kinase TYK2 (Homo sapiens, UniProt P29597)
[10] = biological target: T3, Uncharacterized protein FLJ45252 (Homo sapiens, UniProt Q6ZSR9); settings: read-out: Kd apparent; k-562, colo 205, sk-n-be(2) and mv-4-11
T3 sequence (Q6ZSR9 whole entry): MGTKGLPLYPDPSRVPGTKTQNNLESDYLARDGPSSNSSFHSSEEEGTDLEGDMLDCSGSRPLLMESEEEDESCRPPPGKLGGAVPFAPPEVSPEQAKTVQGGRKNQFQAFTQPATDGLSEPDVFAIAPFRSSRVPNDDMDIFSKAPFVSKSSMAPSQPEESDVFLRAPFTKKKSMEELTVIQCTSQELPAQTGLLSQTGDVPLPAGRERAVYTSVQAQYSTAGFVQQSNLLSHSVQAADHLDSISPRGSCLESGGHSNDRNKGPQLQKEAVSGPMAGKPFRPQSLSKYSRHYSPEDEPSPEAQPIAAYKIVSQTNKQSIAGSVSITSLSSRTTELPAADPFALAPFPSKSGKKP
Note: in the data inactive means no Kd found up to 30 µM.

Sequence of Bone morphogenetic protein receptor type-1A (P36894 whole entry): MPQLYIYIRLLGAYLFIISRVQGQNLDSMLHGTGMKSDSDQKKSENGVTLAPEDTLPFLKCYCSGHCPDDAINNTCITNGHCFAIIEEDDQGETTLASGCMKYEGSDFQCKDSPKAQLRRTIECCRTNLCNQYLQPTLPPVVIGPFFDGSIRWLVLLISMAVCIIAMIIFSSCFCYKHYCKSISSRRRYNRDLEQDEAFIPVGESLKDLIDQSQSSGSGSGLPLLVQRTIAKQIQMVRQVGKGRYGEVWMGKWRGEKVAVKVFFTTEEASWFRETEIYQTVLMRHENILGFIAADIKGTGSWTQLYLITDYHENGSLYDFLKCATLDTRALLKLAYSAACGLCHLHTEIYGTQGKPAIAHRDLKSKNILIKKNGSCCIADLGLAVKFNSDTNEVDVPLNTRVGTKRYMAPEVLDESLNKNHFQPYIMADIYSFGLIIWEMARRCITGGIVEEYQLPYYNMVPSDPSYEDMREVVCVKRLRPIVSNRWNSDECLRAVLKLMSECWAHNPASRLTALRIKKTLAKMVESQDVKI
Sequence of Ephrin type-A receptor 7 (Q15375 whole entry): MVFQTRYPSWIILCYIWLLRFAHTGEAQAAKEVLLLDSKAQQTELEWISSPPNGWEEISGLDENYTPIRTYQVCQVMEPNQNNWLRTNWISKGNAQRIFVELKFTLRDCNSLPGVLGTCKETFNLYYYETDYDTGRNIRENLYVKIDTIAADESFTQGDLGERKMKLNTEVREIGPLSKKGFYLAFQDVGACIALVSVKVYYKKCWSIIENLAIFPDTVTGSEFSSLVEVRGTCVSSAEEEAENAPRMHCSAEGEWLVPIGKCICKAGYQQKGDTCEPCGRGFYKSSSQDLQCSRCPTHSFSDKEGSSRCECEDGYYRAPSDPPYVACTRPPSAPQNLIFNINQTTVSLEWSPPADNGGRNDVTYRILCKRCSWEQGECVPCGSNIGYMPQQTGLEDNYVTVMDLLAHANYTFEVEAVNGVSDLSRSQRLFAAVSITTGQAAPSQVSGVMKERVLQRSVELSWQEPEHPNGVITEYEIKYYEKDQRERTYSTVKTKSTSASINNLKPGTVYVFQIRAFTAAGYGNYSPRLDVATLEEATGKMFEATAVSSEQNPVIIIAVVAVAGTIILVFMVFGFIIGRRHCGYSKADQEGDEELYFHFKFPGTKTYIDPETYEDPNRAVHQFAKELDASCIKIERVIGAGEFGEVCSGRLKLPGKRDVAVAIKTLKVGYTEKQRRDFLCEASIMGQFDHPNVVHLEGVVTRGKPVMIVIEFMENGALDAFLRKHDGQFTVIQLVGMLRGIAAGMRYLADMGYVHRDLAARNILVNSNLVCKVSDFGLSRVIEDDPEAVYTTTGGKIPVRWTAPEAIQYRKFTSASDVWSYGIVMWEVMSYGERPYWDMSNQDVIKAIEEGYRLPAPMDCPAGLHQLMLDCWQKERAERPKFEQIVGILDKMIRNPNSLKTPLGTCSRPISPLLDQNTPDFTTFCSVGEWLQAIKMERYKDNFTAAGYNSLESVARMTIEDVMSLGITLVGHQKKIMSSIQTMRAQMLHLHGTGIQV
Sequence of Casein kinase I isoform alpha (P48729 whole entry, canonical isoform): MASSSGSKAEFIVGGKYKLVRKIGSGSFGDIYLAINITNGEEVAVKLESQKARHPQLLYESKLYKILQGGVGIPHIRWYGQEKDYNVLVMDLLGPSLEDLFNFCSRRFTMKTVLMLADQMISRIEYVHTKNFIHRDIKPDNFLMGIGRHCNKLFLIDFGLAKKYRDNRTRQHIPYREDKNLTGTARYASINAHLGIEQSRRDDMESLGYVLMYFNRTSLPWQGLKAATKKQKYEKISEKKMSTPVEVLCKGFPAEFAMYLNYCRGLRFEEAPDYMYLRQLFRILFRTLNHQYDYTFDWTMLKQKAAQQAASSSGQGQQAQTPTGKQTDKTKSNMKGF
Sequence of Ribosomal protein S6 kinase beta-1 (P23443 whole entry): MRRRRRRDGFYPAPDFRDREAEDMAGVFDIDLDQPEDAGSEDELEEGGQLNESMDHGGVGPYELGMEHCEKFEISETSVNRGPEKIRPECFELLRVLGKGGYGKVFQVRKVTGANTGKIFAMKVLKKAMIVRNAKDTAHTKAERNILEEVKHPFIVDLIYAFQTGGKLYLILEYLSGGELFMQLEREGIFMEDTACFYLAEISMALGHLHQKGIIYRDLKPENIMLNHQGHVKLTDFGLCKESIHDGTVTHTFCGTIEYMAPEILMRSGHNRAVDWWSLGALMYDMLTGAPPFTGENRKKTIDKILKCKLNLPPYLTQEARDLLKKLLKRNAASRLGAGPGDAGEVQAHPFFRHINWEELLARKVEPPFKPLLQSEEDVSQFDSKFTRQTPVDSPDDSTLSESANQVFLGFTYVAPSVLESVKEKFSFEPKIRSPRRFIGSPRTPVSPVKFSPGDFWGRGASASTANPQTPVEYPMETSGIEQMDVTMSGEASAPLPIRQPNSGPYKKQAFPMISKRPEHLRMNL
Sequence of Hepatocyte growth factor receptor (P08581 whole entry): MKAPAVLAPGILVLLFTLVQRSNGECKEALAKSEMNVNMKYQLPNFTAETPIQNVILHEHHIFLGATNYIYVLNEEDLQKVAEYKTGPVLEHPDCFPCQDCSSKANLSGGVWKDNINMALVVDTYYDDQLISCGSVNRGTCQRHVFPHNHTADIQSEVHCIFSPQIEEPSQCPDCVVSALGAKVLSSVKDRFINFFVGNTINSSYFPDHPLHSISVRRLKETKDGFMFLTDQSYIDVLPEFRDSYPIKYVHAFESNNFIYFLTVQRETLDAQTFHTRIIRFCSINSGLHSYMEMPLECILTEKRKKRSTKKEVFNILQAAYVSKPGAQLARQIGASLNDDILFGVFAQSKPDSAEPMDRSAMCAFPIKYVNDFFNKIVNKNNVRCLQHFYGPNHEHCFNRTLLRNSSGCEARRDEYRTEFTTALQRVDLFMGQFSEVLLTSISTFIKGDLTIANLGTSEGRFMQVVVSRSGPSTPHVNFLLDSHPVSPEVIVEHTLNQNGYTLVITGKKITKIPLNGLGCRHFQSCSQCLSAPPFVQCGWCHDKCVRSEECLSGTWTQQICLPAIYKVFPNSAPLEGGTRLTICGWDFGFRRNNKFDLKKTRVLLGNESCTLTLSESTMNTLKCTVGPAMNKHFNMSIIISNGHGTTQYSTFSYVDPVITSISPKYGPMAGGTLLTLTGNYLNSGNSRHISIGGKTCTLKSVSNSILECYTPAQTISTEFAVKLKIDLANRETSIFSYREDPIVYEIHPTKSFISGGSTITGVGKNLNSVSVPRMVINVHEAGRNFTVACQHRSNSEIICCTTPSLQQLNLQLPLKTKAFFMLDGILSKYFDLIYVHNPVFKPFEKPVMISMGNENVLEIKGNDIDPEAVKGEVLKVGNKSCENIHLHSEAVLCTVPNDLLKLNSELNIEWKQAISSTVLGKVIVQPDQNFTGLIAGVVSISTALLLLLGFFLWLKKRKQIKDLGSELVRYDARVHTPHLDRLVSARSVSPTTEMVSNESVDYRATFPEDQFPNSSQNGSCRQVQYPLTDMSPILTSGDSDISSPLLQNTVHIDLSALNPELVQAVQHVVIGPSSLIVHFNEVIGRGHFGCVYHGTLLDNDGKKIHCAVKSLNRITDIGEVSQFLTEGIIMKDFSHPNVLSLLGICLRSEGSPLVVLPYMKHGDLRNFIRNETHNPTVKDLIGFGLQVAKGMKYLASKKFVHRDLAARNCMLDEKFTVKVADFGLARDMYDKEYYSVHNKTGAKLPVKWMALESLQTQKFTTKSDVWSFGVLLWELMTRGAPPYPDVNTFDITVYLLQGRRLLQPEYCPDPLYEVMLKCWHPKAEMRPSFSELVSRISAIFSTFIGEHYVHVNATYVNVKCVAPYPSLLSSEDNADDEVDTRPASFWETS
Sequence of Non-receptor tyrosine-protein kinase TYK2 (P29597 whole entry): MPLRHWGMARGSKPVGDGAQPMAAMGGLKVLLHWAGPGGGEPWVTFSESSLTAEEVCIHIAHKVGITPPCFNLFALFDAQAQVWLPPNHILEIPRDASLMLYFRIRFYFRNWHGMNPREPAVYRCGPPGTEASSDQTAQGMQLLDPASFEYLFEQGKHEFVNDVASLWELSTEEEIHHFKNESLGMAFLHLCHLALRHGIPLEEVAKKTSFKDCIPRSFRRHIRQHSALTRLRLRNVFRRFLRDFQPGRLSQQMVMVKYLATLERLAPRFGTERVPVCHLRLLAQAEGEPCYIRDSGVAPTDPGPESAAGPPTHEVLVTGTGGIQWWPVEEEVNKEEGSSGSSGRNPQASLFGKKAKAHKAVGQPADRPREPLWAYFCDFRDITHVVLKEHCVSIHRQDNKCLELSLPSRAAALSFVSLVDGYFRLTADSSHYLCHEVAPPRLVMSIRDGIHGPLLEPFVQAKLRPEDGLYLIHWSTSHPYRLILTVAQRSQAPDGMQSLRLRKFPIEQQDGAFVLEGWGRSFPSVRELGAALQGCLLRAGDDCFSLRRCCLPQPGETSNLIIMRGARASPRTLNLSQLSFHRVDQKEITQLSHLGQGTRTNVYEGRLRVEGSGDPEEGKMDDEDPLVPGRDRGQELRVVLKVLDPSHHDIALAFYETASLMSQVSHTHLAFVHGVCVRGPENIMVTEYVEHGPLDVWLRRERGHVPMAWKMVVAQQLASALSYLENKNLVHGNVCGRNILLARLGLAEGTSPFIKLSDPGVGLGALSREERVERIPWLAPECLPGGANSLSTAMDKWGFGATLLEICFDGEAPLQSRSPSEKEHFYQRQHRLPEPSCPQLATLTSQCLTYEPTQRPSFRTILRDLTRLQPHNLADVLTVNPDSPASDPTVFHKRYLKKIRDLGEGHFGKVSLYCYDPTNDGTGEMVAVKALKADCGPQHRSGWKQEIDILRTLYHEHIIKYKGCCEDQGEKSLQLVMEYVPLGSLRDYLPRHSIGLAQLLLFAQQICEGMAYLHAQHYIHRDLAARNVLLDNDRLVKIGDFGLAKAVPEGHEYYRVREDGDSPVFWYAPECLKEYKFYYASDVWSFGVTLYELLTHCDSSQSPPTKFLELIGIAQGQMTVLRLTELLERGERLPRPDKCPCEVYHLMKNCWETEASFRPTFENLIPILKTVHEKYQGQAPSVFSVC

| Structure (SMILES) | Kd [1] | Kd [2] | Kd [3] | Kd [4] | Kd (Ephrin type-A receptor 7) | Kd [5] | Kd [6] | Kd [7] | Kd [8] | Kd (DNA topoisomerase 2-beta) | Kd [9] | Kd [10] |
| --- | --- | --- | --- | --- | --- | --- | --- | --- | --- | --- | --- | --- |
| C[C@@H](Oc1cc(C(=O)Nc2ccc(C(=O)N3CCN(C)CC3)cc2)nnc1N)c1c(Cl)ccc(F)c1Cl | > 30 µM (inactive) | > 30 µM (inactive) | > 30 µM (inactive) | > 30 µM (inactive) | > 30 µM (inactive) | > 30 µM (inactive) | 0.032 µM | > 30 µM (inactive) | > 30 µM (inactive) | > 30 µM (inactive) | > 30 µM (inactive) | 3.36 µM (active) |
| CC(=O)c1cnc2ccc(-c3cc(Cl)c(O)c(Cl)c3)nc2c1N[C@H]1CC[C@H](CN(C)C)CC1 | > 30 µM (inactive) | 0.288 µM (active) | 0.931 µM (active) | > 30 µM (inactive) | 0.016 µM | 0.014 µM (active) | > 30 µM (inactive) | > 30 µM (inactive) | > 30 µM (inactive) | > 30 µM (inactive) | > 30 µM (inactive) |  |
| CCNC(=O)C#Cc1ccc2c(c1)NC(=O)/C2=C(\Nc1ccc(CN(C)C)cc1)c1ccccc1 | > 30 µM (inactive) | > 30 µM (inactive) | > 30 µM (inactive) | > 30 µM (inactive) | > 30 µM (inactive) | 0.635 µM (active) | > 30 µM (inactive) | > 30 µM (inactive) | > 30 µM (inactive) | > 30 µM (inactive) | > 30 µM (inactive) | > 30 µM (inactive) |
| C=CC(=O)N1CCC[C@H](n2c(=O)n(-c3ccc(Oc4ccccc4)cc3)c3c(N)ncnc32)C1 | > 30 µM (inactive) | > 30 µM (inactive) | > 30 µM (inactive) | > 30 µM (inactive) | > 30 µM (inactive) | > 30 µM (inactive) | > 30 µM (inactive) | > 30 µM (inactive) | > 30 µM (inactive) | > 30 µM (inactive) | > 30 µM (inactive) | > 30 µM (inactive) |
| COCc1c(-c2ccc(NC(=O)Nc3cc(C(F)(F)F)ccc3F)c(F)c2)c2c(N)ncnn2c1CN1CCOCC1 | > 30 µM (inactive) | > 30 µM (inactive) | > 30 µM (inactive) | > 30 µM (inactive) | > 30 µM (inactive) | > 30 µM (inactive) | > 30 µM (inactive) | > 30 µM (inactive) | > 30 µM (inactive) | > 30 µM (inactive) | > 30 µM (inactive) | > 30 µM (inactive) |
| COc1c(OCCCN2CCOCC2)ccc2c1N=C(NC(=O)c1cnc(N)nc1)N1CCN=C21 [COPANLISIB] | > 30 µM (inactive) | > 30 µM (inactive) | > 30 µM (inactive) | > 30 µM (inactive) | > 30 µM (inactive) | > 30 µM (inactive) | > 30 µM (inactive) | > 30 µM (inactive) | > 30 µM (inactive) | > 30 µM (inactive) | > 30 µM (inactive) |  |
| CO[C@H]1C[C@@H]2CC[C@@H](C)[C@@](O)(O2)C(=O)C(=O)N2CCCC[C@H]2C(=O)O[C@H]([C@H](C)C[C@@H]2CC[C@@H](OP(C)(C)=O)[C@H](OC)C2)CC(=O)[C@H](C)/C=C(\C)[C@@H](O)[C@@H](OC)C(=O)[C@H](C)C[C@H](C)/C=C/C=C/C=C/1C [RIDAFOROLIMUS] | > 30 µM (inactive) | > 30 µM (inactive) | > 30 µM (inactive) | > 30 µM (inactive) |  | > 30 µM (inactive) | > 30 µM (inactive) | > 30 µM (inactive) | > 30 µM (inactive) | > 30 µM (inactive) | > 30 µM (inactive) | > 30 µM (inactive) |

Further lines, results first:

| Kd [1] | Kd [2] | Kd [3] | Kd [4] | Kd (Ephrin type-A receptor 7) | Kd [5] | Kd [6] | Kd [7] | Kd [8] | Kd (DNA topoisomerase 2-beta) | Kd [9] | Kd [10] | Structure (SMILES) |
| --- | --- | --- | --- | --- | --- | --- | --- | --- | --- | --- | --- | --- |
| > 30 µM (inactive) | > 30 µM (inactive) | > 30 µM (inactive) | > 30 µM (inactive) |  | > 30 µM (inactive) | > 30 µM (inactive) | > 30 µM (inactive) | > 30 µM (inactive) | > 30 µM (inactive) | > 30 µM (inactive) | > 30 µM (inactive) | CO[C@H]1C[C@@H]2CC[C@@H](C)[C@@](O)(O2)C(=O)C(=O)N2CCCC[C@H]2C(=O)O[C@H]([C@H](C)C[C@@H]2CC[C@@H](O)[C@H](OC)C2)CC(=O)[C@H](C)/C=C(\C)[C@@H](O)[C@@H](OC)C(=O)[C@H](C)C[C@H](C)/C=C/C=C/C=C/1C [SIROLIMUS] |
| > 30 µM (inactive) | > 30 µM (inactive) | > 30 µM (inactive) | > 30 µM (inactive) | 0.615 µM (active) | > 30 µM (inactive) | > 30 µM (inactive) | > 30 µM (inactive) | > 30 µM (inactive) | > 30 µM (inactive) | > 30 µM (inactive) |  | CCS(=O)(=O)c1cccc(-c2cc(C(=O)NC3CCN(C)CC3)c(C)c3[nH]c4ncc(C)cc4c23)c1 [TAK-901] |
| > 30 µM (inactive) | > 30 µM (inactive) | > 30 µM (inactive) | > 30 µM (inactive) |  | > 30 µM (inactive) | 0.511 µM (active) | 0.017 µM | > 30 µM (inactive) | > 30 µM (inactive) | > 30 µM (inactive) | > 30 µM (inactive) | O=C1NC(=O)[C@@H](c2cn3c4c(cccc24)CCC3)[C@@H]1c1c[nH]c2ccccc12 [TIVANTINIB] |
|  | > 30 µM (inactive) | > 30 µM (inactive) | > 30 µM (inactive) | 0.017 µM (active) | > 30 µM (inactive) | > 30 µM (inactive) | > 30 µM (inactive) | > 30 µM (inactive) | > 30 µM (inactive) | > 30 µM (inactive) |  | CC(C)c1cc(CNc2nc(Nc3cc(C4CC4)[nH]n3)cc(N3CCN(C)CC3)n2)on1 [XL-228] |
